Measurements: PubChem BioAssay (NCI)
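At the GI50, growth is halved. TGI denotes the concentration required for complete inhibition of growth.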

Columns and labels:
Assay in all cases: NCI anticancer screen, dose series, 384-well format
SN12C renal = tested on: SN12C renal
SK-MEL-28 melanoma = tested on: SK-MEL-28 melanoma
SK-OV-3 ovarian = tested on: SK-OV-3 ovarian
HT29 colon = tested on: HT29 colon
SF-539 CNS = tested on: SF-539 CNS
MDA-MB-231 breast = tested on: MDA-MB-231 breast
MALME-3M melanoma = tested on: MALME-3M melanoma
NCI-H322M lung = tested on: NCI-H322M lung
SF-268 CNS = tested on: SF-268 CNS
OVCAR-4 ovarian = tested on: OVCAR-4 ovarian
NCI-H460 NSCLC = tested on: NCI-H460 NSCLC
HCT-15 colon = tested on: HCT-15 colon
HS 578T breast = tested on: HS 578T breast
NCI-H226 lung = tested on: NCI-H226 lung
SNB-19 CNS = tested on: SNB-19 CNS
HCT-116 colon = tested on: HCT-116 colon
TK-10 renal = tested on: TK-10 renal
MOLT-4 leukemia = tested on: MOLT-4 leukemia
HOP-92 NSCLC = tested on: HOP-92 NSCLC
ACHN renal = tested on: ACHN renal
UACC-62 melanoma = tested on: UACC-62 melanoma
786-0 renal = tested on: 786-0 renal
CAKI-1 renal = tested on: CAKI-1 renal
EKVX NSCLC = tested on: EKVX NSCLC
HCC-2998 colon = tested on: HCC-2998 colon
OVCAR-5 ovarian = tested on: OVCAR-5 ovarian
RPMI-8226 leukemia = tested on: RPMI-8226 leukemia
NCI/ADR-RES ovarian = tested on: NCI/ADR-RES ovarian
MDA-MB-435 melanoma = tested on: MDA-MB-435 melanoma
KM12 colon = tested on: KM12 colon
SW-620 colon = tested on: SW-620 colon
MDA-MB-468 breast = tested on: MDA-MB-468 breast
M14 melanoma = tested on: M14 melanoma
IGROV1 ovarian = tested on: IGROV1 ovarian
UACC-257 melanoma = tested on: UACC-257 melanoma
UO-31 renal = tested on: UO-31 renal
K-562 leukemia = tested on: K-562 leukemia
CCRF-CEM leukemia = tested on: CCRF-CEM leukemia
BT-549 breast = tested on: BT-549 breast
SK-MEL-5 melanoma = tested on: SK-MEL-5 melanoma
OVCAR-3 ovarian = tested on: OVCAR-3 ovarian
OVCAR-8 ovarian = tested on: OVCAR-8 ovarian
A498 renal = tested on: A498 renal
DU-145 prostate = tested on: DU-145 prostate
RXF 393 renal = tested on: RXF 393 renal
PC-3 prostate = tested on: PC-3 prostate
NCI-H23 lung = tested on: NCI-H23 lung
LOX IMVI melanoma = tested on: LOX IMVI melanoma
MCF7 breast = tested on: MCF7 breast
HOP-62 NSCLC = tested on: HOP-62 NSCLC
U251 glioblastoma = tested on: U251 glioblastoma
SF-295 CNS = tested on: SF-295 CNS
SNB-75 CNS = tested on: SNB-75 CNS
COLO 205 colon = tested on: COLO 205 colon

For CCN(CCO)CCCOc1ccc2c(Nc3cc(CC(=O)Nc4cccc(F)c4)[nH]n3)ncnc2c1, the GI50 (SN12C renal) was 10.8 µM, the TGI (SN12C renal) was 23.4 µM and the GI50 (SK-MEL-28 melanoma) was 15.5 µM. For the same compound, the TGI (SK-MEL-28 melanoma) was 29 µM, the GI50 (SK-OV-3 ovarian) was 9.32 µM and the TGI (SK-OV-3 ovarian) was 21.4 µM. The GI50 (HT29 colon) was 13.2 µM, the TGI (HT29 colon) was 26.2 µM and the GI50 (SF-539 CNS) was 2.31 µM. The TGI (SF-539 CNS) was 19.1 µM, the GI50 (MDA-MB-231 breast) was 12 µM and the TGI (MDA-MB-231 breast) was 24.5 µM. The GI50 (MALME-3M melanoma) was 11.3 µM, the TGI (MALME-3M melanoma) was 23.4 µM and the GI50 (NCI-H322M lung) was 16.2 µM. It also gave a TGI (NCI-H322M lung) of 38.5 µM, a GI50 (SF-268 CNS) of less than 0.01 µM and a TGI (SF-268 CNS) of 4.6 µM. It also gave a GI50 (OVCAR-4 ovarian) of 12.2 µM, a TGI (OVCAR-4 ovarian) of 26.5 µM and a GI50 (NCI-H460 NSCLC) of 0.0403 µM. It also gave a TGI (NCI-H460 NSCLC) of 16.9 µM, a GI50 (HCT-15 colon) greater than 100 µM and a TGI (HCT-15 colon) greater than 100 µM. It also gave a GI50 (HS 578T breast) of 0.0205 µM, a TGI (HS 578T breast) of 18.5 µM and a GI50 (NCI-H226 lung) of 14.4 µM. It also gave a TGI (NCI-H226 lung) of 36.4 µM, a GI50 (SNB-19 CNS) of 11.7 µM and a TGI (SNB-19 CNS) of 24.1 µM. It also gave a GI50 (HCT-116 colon) of 8.43 µM, a TGI (HCT-116 colon) of 21.4 µM and a GI50 (TK-10 renal) of 32.5 µM. For the same compound, the TGI (TK-10 renal) was greater than 100 µM, the GI50 (MOLT-4 leukemia) was less than 0.01 µM and the GI50 (HOP-92 NSCLC) was 8.99 µM. It also gave a TGI (HOP-92 NSCLC) of 21.2 µM, a GI50 (ACHN renal) greater than 100 µM and a TGI (ACHN renal) greater than 100 µM. The GI50 (UACC-62 melanoma) was 13.9 µM, the TGI (UACC-62 melanoma) was 26.9 µM and the GI50 ([…]-0 renal) was 16 µM. For the same compound, the TGI (786-0 renal) was 31.7 µM, the GI50 (CAKI-1 renal) was 11.7 µM and the TGI (CAKI-1 renal) was 26.4 µM. For the same compound, the GI50 (EKVX NSCLC) was 14 µM, the TGI (EKVX NSCLC) was 41.7 µM and the GI50 (HCC-2998 colon) was 12.8 µM. For the same compound, the TGI (HCC-2998 colon) was 25.4 µM, the GI50 (OVCAR-5 ovarian) was 18.1 µM and the TGI (OVCAR-5 ovarian) was 51.2 µM. For the same compound, the GI50 (RPMI-8226 leukemia) was 7.83 µM, the TGI (RPMI-8226 leukemia) was 21.2 µM and the GI50 (NCI/ADR-RES ovarian) was greater than 100 µM. The TGI (NCI/ADR-RES ovarian) was greater than 100 µM, the GI50 (MDA-MB-435 melanoma) was 13.4 µM and the TGI (MDA-MB-435 melanoma) was 26.3 µM. The GI50 (KM12 colon) was 3.46 µM, the TGI (KM12 colon) was 14.6 µM and the GI50 (SW-620 colon) was 13.7 µM. It also gave a TGI (SW-620 colon) of 28.9 µM, a GI50 (MDA-MB-468 breast) of 0.0155 µM and a TGI (MDA-MB-468 breast) of 4.03 µM. For the same compound, the GI50 (M14 melanoma) was 13.3 µM, the TGI (M14 melanoma) was 26.6 µM and the GI50 (IGROV1 ovarian) was 11.6 µM. The TGI (IGROV1 ovarian) was 24.9 µM, the GI50 (UACC-257 melanoma) was 14.7 µM and the TGI (UACC-257 melanoma) was 27.9 µM. For the same compound, the GI50 (UO-31 renal) was greater than 100 µM, the TGI (UO-31 renal) was greater than 100 µM and the GI50 (K-562 leukemia) was 10.1 µM. For the same compound, the TGI (K-562 leukemia) was 22.7 µM, the GI50 (CCRF-CEM leukemia) was less than 0.01 µM and the GI50 (BT-549 breast) was 12 µM. The TGI (BT-549 breast) was 24.4 µM, the GI50 (SK-MEL-5 melanoma) was 11.4 µM and the TGI (SK-MEL-5 melanoma) was 24.8 µM. It also gave a GI50 (OVCAR-3 ovarian) of 1.63 µM, a TGI (OVCAR-3 ovarian) of 14.7 µM and a GI50 (OVCAR-8 ovarian) of 14.7 µM. It also gave a TGI (OVCAR-8 ovarian) of 28.9 µM, a GI50 (A498 renal) of 29.8 µM and a TGI (A498 renal) greater than 100 µM. It also gave a GI50 (DU-145 prostate) of 27.7 µM, a TGI (DU-145 prostate) of 92 µM and a GI50 (RXF 393 renal) of 0.0465 µM. It also gave a TGI (RXF 393 renal) of 20.6 µM, a GI50 (PC-3 prostate) of 15.1 µM and a TGI (PC-3 prostate) of 28.6 µM. It also gave a GI50 (NCI-H23 lung) of 11.8 µM, a TGI (NCI-H23 lung) of 25.1 µM and a GI50 (LOX IMVI melanoma) of 10.2 µM. The TGI (LOX IMVI melanoma) was 21.8 µM, the GI50 (MCF7 breast) was 2.69 µM and the TGI (MCF7 breast) was 18.2 µM. It also gave a GI50 (HOP-62 NSCLC) of 11.7 µM, a TGI (HOP-62 NSCLC) of 24.1 µM and a GI50 (U251 glioblastoma) of 12 µM. It also gave a TGI (U251 glioblastoma) of 24.4 µM, a GI50 (SF-295 CNS) of 13.8 µM and a TGI (SF-295 CNS) of 29.2 µM. The GI50 (SNB-75 CNS) was 15.1 µM, the TGI (SNB-75 CNS) was 28.4 µM and the GI50 (COLO 205 colon) was 0.0236 µM. The TGI (COLO 205 colon) was 0.0915 µM.
